Data reported in patent US20030228621A1, “Common ligand universal enzyme assay and compositions for use therein” (priority 2002, published 2003).
Read-outs that look alike come from different tables or passages of the source.

Assays:
[1] = molecular target: T1, dihydrodipicolinate reductase (DHPR) (Escherichia coli, UniProt P04036); experiment: Fluorescence polarization displacement of FITC-NADH from dihydrodipicolinate reductase; format: binding
Method: FITC-NADH was dissolved in 10 mM TAPS buffer with 5% NaHCO3, pH=8. The final concentration of FITC-NADH was 150 μM. In later experiments 150 μM FITC-NADH was diluted to the desired concentration in 20 mM Potassium Phosphate buffer, pH=7.4. Fluorescence polarization was monitored using a Beacon 2000 Variable Temperature Fluorescence Polarization System (PanVera Corporation, Madison, Wis.) and an LJL Analyst HT 96-384 (Molecular Devices Corporation, Sunnyvale, Calif.). The concentration of FITC-NADH as fluorescent tracer was selected by measuring fluorescence polarization of varying concentrations of FITC-NADH in 10 mM Potassium Phosphate buffer, pH=7.4. The concentration range was 0.15 nM—15 nM. For the best signal to noise ratio regarding both the horizontal and vertical intensities that contribute to the fluorescence polarization value, a concentration of 25 nM was chosen for FITC-NADH in the majority of experiments.
The fluorescence polarization of solutions of 7 μM dihydrodipicolinate reductase and 25 nM FITC-NADH with NADH was measured. The concentration of dihydrodipicolinate reductase was such that a solution of dihydrodipicolinate reductase and FITC-NADH would give the fluorescence polarization mP value of 220-230 mP. The blank was protein in buffer and NADH. […] The data was fitted to the following equation:
mP=YH′−(YH′−YL)*(1/(1+Kd^app/C))
Kd=Kd^app*(1/(1+A/Kd^tracer))
(§1) where C is the concentration of NADH; A is the concentration of enzyme; YH′ is the polarization for the FITC-NADH at the specified enzyme concentration in the absence of NADH; YL is the polarization for FITC-NADH when fully displaced from the enzyme by NADH; and Kd^tracer is the dissociation constant of the enzyme for FITC-NADH.
The displacement of FITC-NADH from dihydrodipicolinate reductase in the presence of the candidate inhibitor compound bromaminic acid, an NMNH-mimic (nicotinamide mononucleotide mimic), was measured by fluorescence polarization assay. The concentration of dihydrodipicolinate reductase was such that dihydrodipicolinate reductase in the presence of FITC-NADH would give the fluorescence polarization, mP, value of 220-230. Protein in buffer combined with the inhibitor was used as the blank.
The Log(bromaminic acid, μM) versus Polarization (mP) data were fitted to the following equation: […]
as §1
In this assay, enzyme in the presence of the ligand has less FITC-NADPH bound if both of the ligands compete for the same site.
(§2) A population of 620 compounds were screened in the competitive displacement assay described herein. […] These compounds are depicted in FIG. 16.

DHPR = DHPR (Escherichia coli, UniProt P04036); experiment: Intrinsic fluorescence of the compound upon binding to the enzyme; details: excitation 365 nm, emission 435 nm
Description: It can be used either as a tracer for the screening, with or without being labeled with a detectable moiety of the invention. As such, this compound can be used for screening candidate ligands.

[2] = molecular target: Enoyl-acyl carrier protein reductase (EACPR) (Escherichia coli, UniProt P0AEK4); experiment: Enzyme activity in presence and absence of varying concentration of dye, EACPR; format: biochemical; details: read-out: Inhibition (IC50, nM) EACPR
Method: (§3) In search for specific ligands with potent binding to several dehydrogenases we screened our internal enzyme panel. In brief, activity of the enzymes was measured in the presence and absence of the varying concentration of the dyes.

[3] = molecular target: T1, dihydrodipicolinate reductase (DHPR); experiment: Enzyme activity in presence and absence of varying concentration of dye, DHPR; format: biochemical; details: for IC50: read-out: Inhibition (IC50, nM) DHPR
Method: as §3

[4] = molecular target: T2, 3-Hydro-3-methyl-glutaryl-CoA reductase (HMGCoAR) (Homo sapiens, UniProt P04035); experiment: Enzyme activity in presence and absence of varying concentration of dye, HMGCoAR; format: biochemical; details: read-out: Inhibition (IC50, nM) HMGCoAR
T2 sequence (P04035 1-888): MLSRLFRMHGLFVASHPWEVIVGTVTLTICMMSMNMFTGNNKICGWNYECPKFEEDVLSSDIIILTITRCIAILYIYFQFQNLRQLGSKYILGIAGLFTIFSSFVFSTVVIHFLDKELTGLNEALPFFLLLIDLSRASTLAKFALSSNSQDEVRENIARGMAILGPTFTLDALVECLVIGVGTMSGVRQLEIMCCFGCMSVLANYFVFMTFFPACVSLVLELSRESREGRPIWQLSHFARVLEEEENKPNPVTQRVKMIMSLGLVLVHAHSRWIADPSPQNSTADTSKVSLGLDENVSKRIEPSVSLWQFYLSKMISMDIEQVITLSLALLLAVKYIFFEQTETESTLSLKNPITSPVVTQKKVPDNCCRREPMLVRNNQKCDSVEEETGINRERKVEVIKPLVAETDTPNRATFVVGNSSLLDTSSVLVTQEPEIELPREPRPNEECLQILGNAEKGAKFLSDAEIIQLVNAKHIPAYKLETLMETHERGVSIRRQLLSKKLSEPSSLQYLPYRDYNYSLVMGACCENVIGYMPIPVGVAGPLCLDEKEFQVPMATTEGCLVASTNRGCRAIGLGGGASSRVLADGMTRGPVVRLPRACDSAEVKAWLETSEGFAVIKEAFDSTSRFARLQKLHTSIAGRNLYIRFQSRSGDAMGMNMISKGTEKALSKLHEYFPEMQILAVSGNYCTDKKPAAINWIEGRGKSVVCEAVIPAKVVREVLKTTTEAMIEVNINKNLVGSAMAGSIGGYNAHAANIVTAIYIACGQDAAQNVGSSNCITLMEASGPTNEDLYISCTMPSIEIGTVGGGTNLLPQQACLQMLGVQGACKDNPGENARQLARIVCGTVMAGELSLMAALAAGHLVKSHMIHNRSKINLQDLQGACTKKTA
Method: as §3

[5] = molecular target: Deoxy-D-xylulose 5-phosphate reductoisomerase (DOXPR) (Escherichia coli, UniProt P45568); experiment: Enzyme activity in presence and absence of varying concentration of dye, DOXPR; format: biochemical; details: for IC50: NADPH at sixteen times its Km, read-out: Inhibition (IC50, nM) DOXPR
Method: as §3
(§4) In this assay, the oxidoreductase common ligand (NADPH) was employed at a concentration sixteen times its Km value. Use of such a high concentration of oxidoreductase common ligand results in a calculated IC50 value at least 17-fold that of the dissociation constant (Kd).

dehydrogenases = experiment: Extent and reversibility of inhibition of the dehydrogenase panel by triazinyl dyes; format: biochemical
Method: as §3
Since all of the dye molecules have a triazinyl reactive group, reversibility of the inhibition was checked.
as §4

[6] = molecular target: Lactate dehydrogenase (LDH); experiment: Enzyme activity in presence and absence of varying concentration of dye, LDH; format: biochemical; details: read-out: Inhibition (IC50, nM) LDH
Method: as §3

DOXPR = DOXPR (Escherichia coli, UniProt P45568); experiment: Displacement of FITC-NADPH from the FITC-NADPH:DOXPR complex; format: binding
Description: (§5) The competitive binding of the dye common ligands of the present invention can be evaluated by use of a displacement assay. In particular, enzyme in the presence of a competitive ligand will have less FITC-NADPH bound if both ligands compete for the same site. […] The dye common ligands of the present invention can completely displace FITC-NADPH from complexes containing this fluorescent tracer and a dehydrogenase. […] Thus, dye common ligands of the invention are useful in displacement assays to study the activity of an oxidoreductase, particularly those having unknown function.
(§6) In competitive assays, the tested dyes displaced the fluorescent-based tracer FITC-NADPH, implying that the dyes bind to DOXPR at the common ligand site. In this assay, enzyme in the presence of the ligand has less FITC-NADPH bound if both of the ligands compete for the same site. […] Calculated Kd values were based on curve shape and were lower than the experimentally determined IC50s.
as §2

[7] = molecular target: 1-deoxy-D-xylulose 5-phosphate reductoisomerase (DOXPR) (Escherichia coli, UniProt P45568); experiment: Displacement of FITC-NADPH from the FITC-NADPH:DOXPR complex (FIG. 14A, 14B); format: binding; details: displacement of FITC-NADPH tracer from DOXPR
Description: as §5, §6

[8] = 7 μM DHPR, 25 nM FITC-NADH, not corrected for enzyme concentration, read-out: Kapp (Kd app), displacement of FITC-NADH
[9] = 7 μM DHPR, 25 nM FITC-NADH, read-out: actual Kd after correction for enzyme concentration
[10] = calculated from curve shape, read-out: Kd from displacement experiments with FITC-NADH and DHPR

Deoxy-D-xylulose 5-phosphate reductoisomerase (DOXPR), sequence (P45568 whole entry): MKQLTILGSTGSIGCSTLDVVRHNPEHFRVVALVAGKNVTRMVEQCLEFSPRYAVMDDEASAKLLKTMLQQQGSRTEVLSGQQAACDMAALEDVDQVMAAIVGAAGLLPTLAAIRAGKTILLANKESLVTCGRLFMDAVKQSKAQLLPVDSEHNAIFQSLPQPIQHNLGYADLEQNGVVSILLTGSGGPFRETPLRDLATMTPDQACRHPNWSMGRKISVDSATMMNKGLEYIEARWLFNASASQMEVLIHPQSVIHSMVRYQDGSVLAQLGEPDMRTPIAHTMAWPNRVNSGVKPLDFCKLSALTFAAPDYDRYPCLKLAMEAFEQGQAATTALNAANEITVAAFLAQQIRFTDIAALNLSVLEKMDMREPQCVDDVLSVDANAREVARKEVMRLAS
T1 sequence (P04036 whole entry): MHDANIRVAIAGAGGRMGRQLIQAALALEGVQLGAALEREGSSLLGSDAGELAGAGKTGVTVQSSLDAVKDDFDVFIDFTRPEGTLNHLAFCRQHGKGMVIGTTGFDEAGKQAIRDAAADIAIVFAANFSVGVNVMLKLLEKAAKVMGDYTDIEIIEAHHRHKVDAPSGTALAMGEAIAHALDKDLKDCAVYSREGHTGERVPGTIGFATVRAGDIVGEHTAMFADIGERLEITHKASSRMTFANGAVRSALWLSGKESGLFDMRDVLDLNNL
Enoyl-acyl carrier protein reductase (EACPR), sequence (P0AEK4 whole entry): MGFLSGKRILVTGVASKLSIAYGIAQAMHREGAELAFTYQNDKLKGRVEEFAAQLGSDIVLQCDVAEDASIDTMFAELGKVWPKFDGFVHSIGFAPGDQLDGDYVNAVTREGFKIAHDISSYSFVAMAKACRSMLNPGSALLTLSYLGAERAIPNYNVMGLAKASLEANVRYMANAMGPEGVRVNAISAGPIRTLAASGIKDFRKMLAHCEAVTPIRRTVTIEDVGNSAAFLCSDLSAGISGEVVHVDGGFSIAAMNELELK
1-deoxy-D-xylulose 5-phosphate reductoisomerase (DOXPR), sequence (P45568 whole entry): as the sequence (P45568 whole entry) above
DOXPR, sequence (P45568 whole entry): as above
DHPR, sequence (P04036 whole entry): as the sequence (P04036 whole entry) above

Molecule: O=S(=O)(O)c1cc(Nc2nc(Nc3ccccc3)nc(N(CCO)CCO)n2)ccc1/C=C\c1ccc(Nc2nc(Nc3ccccc3)nc(N(CCO)CCO)n2)cc1S(=O)(=O)O
- Kd ([1]; compound from screen of 620 compounds, read-out: kd, tight binding to DHPR): < 100 nM
- increase in intrinsic fluorescence upon binding to the enzyme (DHPR): 3 fold

Molecule: NC(=O)C1=CN([C@@H]2O[C@H](COP(=O)(O)OP(=O)(O)OC[C@H]3O[C@@H](n4cnc5c(N)ncnc54)[C@H](O)[C@@H]3O)[C@@H](O)[C@H]2O)C=CC1 [NADH, Reduced nicotinamide adenine dinucleotide]
- Kd [1, 8]: 1200 ± 150 nM
- Kd [1, 9]: 200 nM

Molecule: Nc1c(S(=O)(=O)O)cc(Nc2ccc(Nc3nc(Cl)nc(Nc4cccc(S(=O)(=O)O)c4)n3)c(S(=O)(=O)O)c2)c2c1C(=O)c1ccccc1C2=O [Reactive Blue 2]
- IC50 [2]: 2500 nM
- IC50 [3]: 1100 nM
- IC50 [4]: 1000 nM
- IC50 [5]: 2000 nM
- reversibility of the inhibition (dehydrogenases): full reversible inhibition
- IC50 [6]: 1500 nM

Molecule: O=S(=O)(O)c1cc(Nc2nc(Cl)nc(Nc3ccc(Nc4nc(Cl)nc(Nc5cc(S(=O)(=O)O)cc6cc(S(=O)(=O)O)c(N=Nc7ccccc7S(=O)(=O)O)c(O)c56)n4)cc3)n2)c2c(O)c(N=Nc3ccccc3S(=O)(=O)O)c(S(=O)(=O)O)cc2c1 [Reactive Red 120]
- IC50 [2]: 246 nM
- displacement of FITC-NADPH from the FITC-NADPH:DOXPR complex (DOXPR): completely displaced
- IC50 [3]: 220 nM
- Kd [1, 10]: 54 nM
- Kd ([7]; calculated, based on curve shape): 5.8 nM
- IC50 [7]: 310 nM
- IC50 [4]: 360 nM
- mode of inhibition versus oxidoreductase common ligand (NADPH) [5]: competitive
- IC50 [5]: 230 nM
- reversibility of the inhibition (dehydrogenases): full reversible inhibition
- IC50 [6]: 9.7 nM

Molecule: Nc1c(S(=O)(=O)O)cc(Br)c2c1C(=O)c1ccccc1C2=O [bromaminic acid]
- Kd [1, 8]: 30000 ± 2200 nM
- Kd [1, 9]: 5000 nM

Molecule: Reactive Green 5
- displacement of FITC-NADPH from the FITC-NADPH:DOXPR complex (DOXPR): completely displaced
- IC50 [3]: 230 nM
- Kd [1, 10]: 15 nM
- IC50 [4]: 44 nM
- mode of inhibition versus oxidoreductase common ligand (NADPH) [5]: competitive
- reversibility of the inhibition (dehydrogenases): full reversible inhibition
- IC50 [6]: 590 nM

Molecule: Sulphophthalocyanine
- binding to DHPR ([3]; tested for inhibition of DHPR): binds
- binding to DOXPR ([5]; tested for inhibition of DOXPR): binds
